From US20260327224A1, “SUBSTITUTED PYRIDOTRIAZOLE COMPOUND, AND PREPARATION METHOD THEREFOR AND USE THEREOF” (ORIGIANT PHARMACEUTICAL CO., LTD., priority 2023, published 2026)
pEC50: −log10 of the molar value.

tested on: HT-29 cells (colon cancer cells); experiment: In vitro assay for protection of HT-29 cells from necroptosis (TNFα/Smac mimetic/Z-VAD-FMK, CCK-8); assay type: cell-based; settings: Homo sapiens, Protective Activity Against Necroptosis, TNFα/Smac mimetic/Z-VAD-FMK induced, 24 h
From the text: Z′=1−3(SDmin+SDmax)/(AVEmax−AVEmin) • wherein: • Min is the positive control Data, and Max is the negative control DMSO Data. • SD is the standard deviation, and AVE is the average. In Vitro Assay for Protection of HT-29 Cells from Necroptosis:
1) Experimental Materials
DMEM medium was purchased from Gibco; penicillin-streptomycin was purchased from Hyclone; TNFα was purchased from Peprotech; Smac mimetic and Z-VAD-FMK were purchased from Selleck; and CCK-8 was purchased from Medchem Express.
HT-29 cells (colon cancer cells) were cultured in DMEM+10% FBS+penicillin/streptomycin. For the experiment, HT-29 cells in the logarithmic phase were collected and seeded into 96-well plates at a specific density (typically 8×10^3 cells/well for adherent cells). The cells were cultured overnight in an incubator at 37° C. with 5% CO2. On the following day, the test compound was diluted with culture medium to the corresponding concentrations and added into the 96-well plate, with 3 replicate wells for each sample. A solvent control group and a blank control group containing only culture medium were set simultaneously. The spiked cells were induced with a combination of TNFα/Smac mimetic/Z-VAD-FMK for 24 h. Subsequently, 10 μL of CCK8 solution was added to each well, and the cells were incubated in an incubator for 1-3 h. Absorbance was measured at […] using a microplate reader, and the cell necrosis protection rate of the drug was calculated using the following formula:
Cell necrosis protection rate=[(X−C0)/(C−C0)]×100% • where C, C0, and X represent the average absorbance values of the solvent control group, the blank control group, and the drug treatment group, respectively. Finally, a cell viability curve was fitted using Graphpad Prism 5.0 software, and the EC50 value of the test compound for inhibiting necroptosis was calculated.

**Q.** `Cn1cc(C(=O)N[C@@H](CF)c2ccc(F)cc2)c2cc(-c3ccn4nc(NC(=O)C5CC5(F)F)nc4c3)ccc21` (stereo partly shown) [Compound 110] was tested. Which pEC50 did it give?
**A.** > 9.00

**Q.** `Cn1cc(C(=O)Nc2nc3cc(-c4ccc5c(c4)c(C(=O)N[C@@H](CF)c4ccc(F)cc4)cn5C)ccn3n2)cn1` [Compound 111] was tested. Which pEC50 did it give?
**A.** 8.00 to 9.00

**Q.** With `COC(C)C(=O)Nc1nc2cc(-c3ccc4c(c3)c(C(=O)N[C@@H](CF)c3ccc(F)cc3)cn4C)ccn2n1` (stereo partly shown) [Compound 112] as the molecule, how does the pEC50 read?
**A.** > 9.00

**Q.** How did the pEC50 turn out when `Cn1cc(C(=O)N[C@@H](CF)c2ccc(F)cc2)c2cc(-c3ccn4nc(NC(=O)C5CC5F)nc4c3)ccc21` (stereo partly shown) [Compound 113] was run?
**A.** 8.00 to 9.00

**Q.** `Cn1cc(C(=O)N[C@@H](CF)c2ccc(F)cc2)c2cc(-c3ccn4nc(NC(=O)C5CC5)nc4c3)ccc21` [Compound 114] was tested. Which pEC50 did it give?
**A.** > 9.00

**Q.** With `C[C@H](NC(=O)c1cn(C)c2ccc(-c3ccn4nc(NC(=O)c5ccnc(F)c5)nc4c3)cc12)c1ccc(F)cc1` [Compound 115] as the molecule, how does the pEC50 read?
**A.** > 9.00

**Q.** With `C[C@H](NC(=O)c1cn(C)c2ccc(-c3ccn4nc(NC(=O)N5CCOCC5)nc4c3)cc12)c1ccc(F)cc1` [Compound 116] as the molecule, how does the pEC50 read?
**A.** > 9.00

**Q.** `C[C@H](NC(=O)c1cn(C)c2ccc(-c3ccn4nc(NC(=O)[C@H]5CCCO5)nc4c3)cc12)c1ccc(F)cc1` [Compound 117] was tested. Which pEC50 did it give?
**A.** > 9.00

**Q.** `C[C@H](NC(=O)c1cn(C)c2ccc(-c3ccn4nc(NC(=O)N5CCOCC5)nc4c3)cc12)c1cccc(F)c1` [Compound 118] was tested. Which pEC50 did it give?
**A.** > 9.00

**Q.** With `C[C@H](NC(=O)c1cn(C)c2ccc(-c3ccn4nc(NC(=O)[C@H]5CCCO5)nc4c3)cc12)c1cccc(F)c1` [Compound 119] as the molecule, how does the pEC50 read?
**A.** > 9.00

**Q.** With `C[C@H](NC(=O)c1cn(C)c2ccc(-c3ccn4nc(NC(=O)c5cnn(C)c5)nc4c3)cc12)c1cccc(F)c1` [Compound 120] as the molecule, how does the pEC50 read?
**A.** > 9.00

**Q.** `Cn1cc(C(=O)N[C@H]2CCc3ccc(F)cc32)c2cc(-c3ccn4nc(NC(=O)[C@H]5CCCO5)nc4c3)ccc21` [Compound 121] was tested. Which pEC50 did it give?
**A.** > 9.00

**Q.** With `Cn1cc(C(=O)Nc2nc3cc(-c4ccc5c(c4)c(C(=O)N[C@H]4CCc6ccc(F)cc64)cn5C)ccn3n2)cn1` [Compound 122] as the molecule, how does the pEC50 read?
**A.** 6.00 to 7.00

**Q.** How did the pEC50 turn out when `CN(C)CC(=O)Nc1nc2cc(-c3ccc4c(c3)c(C(=O)N[C@H]3CCc5ccc(F)cc53)cn4C)ccn2n1` [Compound 123] was run?
**A.** 8.00 to 9.00

**Q.** `CC(=O)Nc1nc2cc(-c3ccc4c(c3)c(C(=O)N[C@@H]3C[C@H]3c3ccc(F)c(F)c3)cn4C)ccn2n1` [Compound 125] was tested. Which pEC50 did it give?
**A.** 5.00 to 6.00

**Q.** With `Cn1cc(C(=O)N[C@H]2CCc3cc(C#N)ccc32)c2cc(-c3ccn4nc(NC(=O)C5CC5)nc4c3)ccc21` [Compound 130] as the molecule, how does the pEC50 read?
**A.** 8.00 to 9.00

**Q.** How did the pEC50 turn out when `CC(=O)Nc1nc2cc(-c3ccc4c(c3)c(C(=O)N[C@H]3CCc5cc(C#N)ccc53)cn4C)ccn2n1` [Compound 132] was run?
**A.** 6.00 to 7.00

**Q.** How did the pEC50 turn out when `Cn1cc(C(=O)N[C@H]2CCCc3cc(F)ccc32)c2cc(-c3ccn4nc(NC(=O)[C@H]5CCCO5)nc4c3)ccc21` [Compound 137] was run?
**A.** 7.00 to 8.00

**Q.** With `Cn1cc(C(=O)N[C@H]2CCCc3cc(F)ccc32)c2cc(-c3ccn4nc(NC(=O)[C@@H]5CCCO5)nc4c3)ccc21` [Compound 139] as the molecule, how does the pEC50 read?
**A.** 8.00 to 9.00

**Q.** With `Cn1cc(C(=O)Nc2nc3cc(-c4ccc5c(c4)c(C(=O)N[C@H]4CCCc6cc(F)ccc64)cn5C)ccn3n2)cn1` [Compound 141] as the molecule, how does the pEC50 read?
**A.** 8.00 to 9.00

**Q.** `Cn1cc(C(=O)N[C@H]2CCCc3cc(F)ccc32)c2cc(-c3ccn4nc(NC(=O)CC#N)nc4c3)ccc21` [Compound 142] was tested. Which pEC50 did it give?
**A.** 7.00 to 8.00

**Q.** `Cn1cc(C(=O)Nc2nc3cc(-c4ccc5c(c4)c(C(=O)N[C@H]4CCCc6ccc(F)cc64)cn5C)ccn3n2)cn1` [Compound 143] was tested. Which pEC50 did it give?
**A.** 8.00 to 9.00

**Q.** `CC(=O)Nc1nc2cc(-c3ccc4c(c3)c(C(=O)N[C@H]3CCCc5ccc(F)cc53)cn4C)ccn2n1` [Compound 145] was tested. Which pEC50 did it give?
**A.** 8.00 to 9.00

**Q.** With `Cn1cc(C(=O)N[C@H]2CCCc3ccc(F)cc32)c2cc(-c3ccn4nc(NC(=O)[C@H]5CCCO5)nc4c3)ccc21` [Compound 146] as the molecule, how does the pEC50 read?
**A.** 7.00 to 8.00

**Q.** With `Cn1cc(C(=O)NC2(c3ccc(F)cc3)COC2)c2cc(-c3ccn4nc(NC(=O)C5CC5)nc4c3)ccc21` [Compound 148] as the molecule, how does the pEC50 read?
**A.** 7.00 to 8.00

**Q.** `Cn1cc(C(=O)Nc2nc3cc(-c4ccc5c(c4)c(C(=O)N4CCOC[C@@H]4c4ccc(F)cc4)cn5C)ccn3n2)cn1` [Compound 149] was tested. Which pEC50 did it give?
**A.** > 9.00

**Q.** `Cn1cc(C(=O)N2CCOC[C@@H]2c2ccc(F)cc2)c2cc(-c3ccn4nc(NC(=O)[C@H]5CCCO5)nc4c3)ccc21` [Compound 150] was tested. Which pEC50 did it give?
**A.** > 9.00

**Q.** With `Cn1cc(C(=O)N2CCOC[C@@H]2c2ccc(F)cc2)c2cc(-c3ccn4nc(NC(=O)C5CC5)nc4c3)ccc21` [Compound 151] as the molecule, how does the pEC50 read?
**A.** > 9.00

**Q.** With `Cn1cc(C(=O)N2CCC[C@H]2c2ccc(F)cc2)c2cc(-c3ccn4nc(NC(=O)N5CCOCC5)nc4c3)ccc21` [Compound 153] as the molecule, how does the pEC50 read?
**A.** > 9.00

**Q.** `Cn1cc(C(=O)N2CCC[C@H]2c2ccc(F)cc2)c2cc(-c3ccn4nc(NC(=O)C5CCCO5)nc4c3)ccc21` (stereo partly shown) [Compound 154] was tested. Which pEC50 did it give?
**A.** > 9.00

**Q.** `Cn1cc(C(=O)Nc2nc3cc(-c4ccc5c(c4)c(C(=O)N[C@@H](CF)c4cccc(F)c4)cn5C)ccn3n2)cn1` [Compound 155] was tested. Which pEC50 did it give?
**A.** > 9.00

**Q.** How did the pEC50 turn out when `Cn1cc(C(=O)N2CC(F)CC2c2ccc(F)cc2)c2cc(-c3ccn4nc(NC(=O)C5CC5)nc4c3)ccc21` (stereo not shown) [Compound 156] was run?
**A.** > 9.00

**Q.** How did the pEC50 turn out when `Cn1cc(C(=O)N2CC(F)CC2c2ccc(F)cc2)c2cc(-c3ccn4nc(NC(=O)C5CCCO5)nc4c3)ccc21` (stereo not shown) [Compound 157] was run?
**A.** > 9.00

**Q.** With `Cn1cc(C(=O)N2CC(F)(F)CC2c2ccc(F)cc2)c2cc(-c3ccn4nc(NC(=O)C5CC5)nc4c3)ccc21` (stereo not shown) [Compound 158] as the molecule, how does the pEC50 read?
**A.** 5.00 to 6.00

**Q.** How did the pEC50 turn out when `Cn1cc(C(=O)N2CC(F)(F)CC2c2ccc(F)cc2)c2cc(-c3ccn4nc(NC(=O)C5CCOC5)nc4c3)ccc21` (stereo not shown) [Compound 159] was run?
**A.** > 9.00

**Q.** `Cn1cc(C(=O)N2CC(F)(F)CC2c2ccc(F)cc2)c2cc(-c3ccn4nc(NC(=O)N5CCOCC5)nc4c3)ccc21` (stereo not shown) [Compound 160] was tested. Which pEC50 did it give?
**A.** > 9.00

**Q.** `Cn1cc(C(=O)N[C@H](c2ccc(F)cc2)C(F)F)c2cc(-c3ccn4nc(NC(=O)C5CC5)nc4c3)ccc21` [Compound 161] was tested. Which pEC50 did it give?
**A.** > 9.00

**Q.** `Cn1cc(C(=O)N[C@H](c2ccc(F)cc2)C(F)F)c2cc(-c3ccn4nc(NC(=O)CN5CCCCC5)nc4c3)ccc21` [Compound 163] was tested. Which pEC50 did it give?
**A.** > 9.00

**Q.** `Cn1cc(C(=O)N[C@H](c2ccc(F)cc2)C(F)F)c2cc(-c3ccn4nc(NC(=O)CC#N)nc4c3)ccc21` [Compound 164] was tested. Which pEC50 did it give?
**A.** > 9.00

**Q.** With `CO[C@@H](C)C(=O)Nc1nc2cc(-c3ccc4c(c3)c(C(=O)N[C@H](c3ccc(F)cc3)C(F)F)cn4C)ccn2n1` [Compound 165] as the molecule, how does the pEC50 read?
**A.** > 9.00

**Q.** `COCC(=O)Nc1nc2cc(-c3ccc4c(c3)c(C(=O)N[C@H](c3ccc(F)cc3)C(F)F)cn4C)ccn2n1` [Compound 166] was tested. Which pEC50 did it give?
**A.** > 9.00

**Q.** With `CN(C)CC(=O)Nc1nc2cc(-c3ccc4c(c3)c(C(=O)N[C@H](c3ccc(F)cc3)C(F)F)cn4C)ccn2n1` [Compound 167] as the molecule, how does the pEC50 read?
**A.** > 9.00

**Q.** With `CN1CCC(C(=O)Nc2nc3cc(-c4ccc5c(c4)c(C(=O)N[C@H](c4ccc(F)cc4)C(F)F)cn5C)ccn3n2)C1` (stereo partly shown) [Compound 168] as the molecule, how does the pEC50 read?
**A.** > 9.00

**Q.** With `Cn1cc(C(=O)N2N=CCC2c2ccc(F)cc2)c2cc(-c3ccn4nc(NC(=O)C5CCOC5)nc4c3)ccc21` (stereo not shown) [Compound 169] as the molecule, how does the pEC50 read?
**A.** > 9.00

**Q.** `Cn1cc(C(=O)N2N=CCC2c2ccc(F)cc2)c2cc(-c3ccn4nc(NC(=O)C5CC5)nc4c3)ccc21` (stereo not shown) [Compound 170] was tested. Which pEC50 did it give?
**A.** > 9.00

**Q.** How did the pEC50 turn out when `Cn1cc(C(=O)Nc2nc3cc(-c4ccc5c(c4)c(C(=O)N4N=CCC4c4ccc(F)cc4)cn5C)ccn3n2)cn1` (stereo not shown) [Compound 171] was run?
**A.** 8.00 to 9.00
